The values below come from US11840686B2, “Modulation of prekallikrein (PKK) expression” (Ionis Pharmaceuticals, Inc., priority 2013, dated 2023).

Strand notation (5' to 3'): a small letter for the sugar, then the base; units joined by * are phosphorothioate-linked, units joined directly phosphodiester-linked; [ ] holds rarer units or linkages, { } end groups; capitals alone tell only the bases. e = 2'-O-(2-methoxyethyl) (MOE); k = constrained ethyl (cEt); [5mC] = 5-methylcytosine; d = 2'-deoxy (DNA)

In one series the test system is human PKK mRNA. Put plainly: Antisense inhibition of human PKK mRNA in HepaRG cells, 1,000 nM, MOE/deoxy/cEt oligonucleotides (Example 3). The series is classed as cell-based. As to conditions: HepaRG cells, 1,000 nM antisense oligonucleotide, Table 29. The gist of the method: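 HepaRG cells at 20,000 per well electroporated with 1,000 nM 16-mer MOE/cEt/deoxy gapmers (phosphorothioate, 5-methylcytosine). After about 24 h, PKK mRNA measured by qRT-PCR with primer probe set RTS3454, normalized to RIBOGREEN total RNA. Reported as percent inhibition versus untreated cells.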
On to “548536 (antisense eT*e[5mC]*kT*d[5mC]*dA*dA*dT*d[5mC]*d[5mC]*d[5mC]*dA*dA*d[5mC]*k[5mC]*k[5mC]*e[5mC]) [compound 548536]”, for which the “% inhibition” value was determined as 0%.

“548537 (antisense e[5mC]*e[5mC]*kT*d[5mC]*dA*dA*dT*d[5mC]*d[5mC]*d[5mC]*dA*dA*d[5mC]*k[5mC]*k[5mC]*eA) [compound 548537]”: the “% inhibition” value is given as 0%.

Take “548538 (antisense eT*eA*kG*dT*dG*dG*d[5mC]*dA*dA*dG*dA*dA*d[5mC]*k[5mC]*kA*e[5mC]) [compound 548538]”: the “% inhibition” value is 0%. Turning to “548539 (antisense e[5mC]*eG*k[5mC]*dG*d[5mC]*dG*dA*dA*dT*dG*d[5mC]*d[5mC]*dT*kG*k[5mC]*e[5mC]) [compound 548539]”, the “% inhibition” value is listed as 41%. For “548540 (antisense eG*eA*k[5mC]*dA*d[5mC]*d[5mC]*dT*dG*d[5mC]*dT*dT*dG*dA*kT*kT*eA) [compound 548540]”, the “% inhibition” value amounted to 7%.

For “548541 (antisense eG*eG*k[5mC]*dA*d[5mC]*dT*dG*dG*dT*d[5mC]*dA*dT*dG*kG*kA*e[5mC]) [compound 548541]”, the “% inhibition” value worked out at 39%. For the substance “548542 (antisense eG*e[5mC]*kG*d[5mC]*d[5mC]*dA*dT*d[5mC]*d[5mC]*dT*dT*d[5mC]*dA*kA*kT*e[5mC]) [compound 548542]”, the “% inhibition” value came to 7%. For the substance “548543 (antisense eG*eA*kT*d[5mC]*d[5mC]*dA*d[5mC]*d[5mC]*d[5mC]*dA*dT*dG*dA*k[5mC]*k[5mC]*eT) [compound 548543]”, the “% inhibition” value is 32%. For the substance “548544 (antisense eG*e[5mC]*kT*dG*dT*dG*dA*d[5mC]*dT*d[5mC]*dA*dG*dA*kT*k[5mC]*eA) [compound 548544]”, the “% inhibition” value was found to be 62%. Regarding “548545 (antisense e[5mC]*eT*k[5mC]*dT*dT*d[5mC]*dG*d[5mC]*dA*dT*dG*dG*dA*k[5mC]*kA*e[5mC]) [compound 548545]”, the “% inhibition” value was found to be 46%. “548546 (antisense eG*e[5mC]*k[5mC]*d[5mC]*dA*dA*dG*d[5mC]*d[5mC]*dT*dA*d[5mC]*dA*kT*kG*e[5mC]) [compound 548546]”: the “% inhibition” value is 35%.

“548548 (antisense eG*e[5mC]*kT*dT*dG*dT*dA*dG*dA*dA*dG*dG*dG*kA*kT*eT) [compound 548548]”: the “% inhibition” value turned out to be 54%. In the case of “548549 (antisense eT*eG*kT*dG*d[5mC]*dA*dA*dT*d[5mC]*dA*dG*dG*dT*kG*kG*eA) [compound 548549]”, the “% inhibition” value is listed as 56%.

Still in this series, the particulars now being: Table 28; HepaRG cells, 1,000 nM antisense oligonucleotide; human PKK mRNA.
“548512 (antisense eT*e[5mC]*k[5mC]*dG*d[5mC]*d[5mC]*dT*dT*dT*dG*dG*dA*dT*kA*k[5mC]*eT) [compound 548512]”: the “% inhibition” value worked out at 49%.

On to “548513 (antisense e[5mC]*e[5mC]*kT*dG*d[5mC]*dT*dG*dA*dT*dT*dG*dT*dG*kT*k[5mC]*eT) [compound 548513]”, for which the “% inhibition” value came out at 16%. Still for that read-out and setting: the same measure for “548514 (antisense eT*e[5mC]*kG*dA*dG*dG*dA*d[5mC]*dA*dG*d[5mC]*d[5mC]*d[5mC]*k[5mC]*k[5mC]*eA) [compound 548514]”: 40%; for “548515 (antisense eA*e[5mC]*k[5mC]*d[5mC]*dG*dT*d[5mC]*dA*dG*d[5mC]*d[5mC]*dT*d[5mC]*kA*kG*e[5mC]) [compound 548515]”: 59%. Still for that read-out and setting: the same measure for “548516 (antisense e[5mC]*eT*kT*dG*d[5mC]*d[5mC]*dT*dA*dT*dT*d[5mC]*dA*d[5mC]*k[5mC]*k[5mC]*e[5mC]) [compound 548516]”: 49%; for “548517 (antisense e[5mC]*eG*kG*dA*d[5mC]*dA*dA*dG*d[5mC]*d[5mC]*dT*dT*dA*k[5mC]*kA*eG) [compound 548517]”: 43%; for “548518 (antisense e[5mC]*eA*k[5mC]*dA*d[5mC]*dT*dT*dA*d[5mC]*d[5mC]*d[5mC]*d[5mC]*dG*k[5mC]*kT*e[5mC]) [compound 548518]”: 12%.

On to “548519 (antisense e[5mC]*e[5mC]*kT*d[5mC]*d[5mC]*d[5mC]*d[5mC]*dT*dT*dG*dT*dG*dT*kG*kT*e[5mC]) [compound 548519]”, for which the “% inhibition” value was 31%.

Take “548520 (antisense e[5mC]*e[5mC]*kG*d[5mC]*dT*dT*d[5mC]*d[5mC]*d[5mC]*dT*dG*dA*d[5mC]*kT*kG*eT) [compound 548520]”: the “% inhibition” value is recorded as 43%. Take “548522 (antisense eA*eG*kG*dT*dA*dT*dT*dG*dA*d[5mC]*d[5mC]*dG*d[5mC]*k[5mC]*kA*eG) [compound 548522]”: the “% inhibition” value is 55%. Take “548523 (antisense eG*eG*kT*dA*dA*dA*dT*d[5mC]*d[5mC]*dA*dT*d[5mC]*d[5mC]*k[5mC]*k[5mC]*eT) [compound 548523]”: the “% inhibition” value is recorded as 44%. Regarding “548524 (antisense eG*e[5mC]*k[5mC]*d[5mC]*dG*dA*dT*d[5mC]*dA*d[5mC]*d[5mC]*dT*dT*kA*kG*eA) [compound 548524]”, the “% inhibition” value was determined as 45%.

Regarding “548525 (antisense eG*eT*k[5mC]*dT*dA*dA*d[5mC]*dT*dG*dG*d[5mC]*d[5mC]*dT*kG*kG*e[5mC]) [compound 548525]”, the “% inhibition” value was 2%. As to “548526 (antisense e[5mC]*eT*kA*dA*dG*d[5mC]*dT*dG*dT*dG*dT*d[5mC]*dT*k[5mC]*kA*eT) [compound 548526]”, the “% inhibition” value worked out at 26%. For the substance “548527 (antisense eT*eG*kT*dT*dT*d[5mC]*dA*dA*dG*dT*dG*d[5mC]*d[5mC]*kA*kG*eA) [compound 548527]”, the “% inhibition” value is given as 50%. For the substance “548528 (antisense eT*eG*k[5mC]*dA*dG*dT*dG*dG*dT*d[5mC]*dA*dA*dG*k[5mC]*kA*eT) [compound 548528]”, the “% inhibition” value turned out to be 32%.

Consider “548529 (antisense eG*e[5mC]*kG*dA*dT*dT*d[5mC]*d[5mC]*dT*dT*dG*d[5mC]*d[5mC]*kT*k[5mC]*eT) [compound 548529]”, for which the “% inhibition” value is listed as 56%. For “548530 (antisense eA*eT*kA*dA*dT*dA*dG*dA*dG*dG*d[5mC]*dA*dG*k[5mC]*k[5mC]*eA) [compound 548530]”, the “% inhibition” value was determined as 50%. Regarding “548531 (antisense eG*eT*k[5mC]*dA*dG*dA*dA*dG*dG*d[5mC]*d[5mC]*dT*d[5mC]*kT*kT*eA) [compound 548531]”, the “% inhibition” value turned out to be 21%.

For the substance “548532 (antisense eT*eA*kT*dT*dT*dA*dT*d[5mC]*d[5mC]*dG*dA*d[5mC]*d[5mC]*kT*k[5mC]*eT) [compound 548532]”, the “% inhibition” value is recorded as 34%.

Regarding “548533 (antisense eG*eA*kG*dG*dT*dG*dG*dT*dT*dG*dG*dA*dG*k[5mC]*kT*eA) [compound 548533]”, the “% inhibition” value turned out to be 9%. Consider “548534 (antisense e[5mC]*eA*kG*dA*dT*d[5mC]*d[5mC]*d[5mC]*dA*dA*dT*dT*d[5mC]*kT*kT*e[5mC]) [compound 548534]”, for which the “% inhibition” value stood at 22%.

With “548535 (antisense eG*eA*kG*dT*d[5mC]*dT*dT*dT*d[5mC]*d[5mC]*dA*dA*dT*k[5mC]*k[5mC]*eT) [compound 548535]”, the “% inhibition” value was found to be 13%.
